Source: patent US20220218678A1, “USE OF 1-PHENYL-2-PYRIDINYL ALKYL ALCOHOL DERIVATIVES FOR TREATING CYSTIC FIBROSIS” (CHIESI FARMACEUTICI S.p.A., priority 2017, published 2022)

What was measured:
[1] = target: T1, CFTR channel (Homo sapiens, UniProt P13569); test: Transepithelial electrical resistance (TEER) assay on 16HBE14o− bronchial epithelial cells; type: cell-based; conditions: 16HBE14o− cells, 10, 30 and 60 minutes; CHF6001 30 nM, Roflumilast 50 nM
T1 construct: the TEER assay was performed with these agents on 16HBE14o− bronchial epithelial cells (BEC); endogenous in cells; host or cells: 16HBE14o− human bronchial epithelial cell line (provided by P. Davis)
T1 sequence (P13569 whole entry): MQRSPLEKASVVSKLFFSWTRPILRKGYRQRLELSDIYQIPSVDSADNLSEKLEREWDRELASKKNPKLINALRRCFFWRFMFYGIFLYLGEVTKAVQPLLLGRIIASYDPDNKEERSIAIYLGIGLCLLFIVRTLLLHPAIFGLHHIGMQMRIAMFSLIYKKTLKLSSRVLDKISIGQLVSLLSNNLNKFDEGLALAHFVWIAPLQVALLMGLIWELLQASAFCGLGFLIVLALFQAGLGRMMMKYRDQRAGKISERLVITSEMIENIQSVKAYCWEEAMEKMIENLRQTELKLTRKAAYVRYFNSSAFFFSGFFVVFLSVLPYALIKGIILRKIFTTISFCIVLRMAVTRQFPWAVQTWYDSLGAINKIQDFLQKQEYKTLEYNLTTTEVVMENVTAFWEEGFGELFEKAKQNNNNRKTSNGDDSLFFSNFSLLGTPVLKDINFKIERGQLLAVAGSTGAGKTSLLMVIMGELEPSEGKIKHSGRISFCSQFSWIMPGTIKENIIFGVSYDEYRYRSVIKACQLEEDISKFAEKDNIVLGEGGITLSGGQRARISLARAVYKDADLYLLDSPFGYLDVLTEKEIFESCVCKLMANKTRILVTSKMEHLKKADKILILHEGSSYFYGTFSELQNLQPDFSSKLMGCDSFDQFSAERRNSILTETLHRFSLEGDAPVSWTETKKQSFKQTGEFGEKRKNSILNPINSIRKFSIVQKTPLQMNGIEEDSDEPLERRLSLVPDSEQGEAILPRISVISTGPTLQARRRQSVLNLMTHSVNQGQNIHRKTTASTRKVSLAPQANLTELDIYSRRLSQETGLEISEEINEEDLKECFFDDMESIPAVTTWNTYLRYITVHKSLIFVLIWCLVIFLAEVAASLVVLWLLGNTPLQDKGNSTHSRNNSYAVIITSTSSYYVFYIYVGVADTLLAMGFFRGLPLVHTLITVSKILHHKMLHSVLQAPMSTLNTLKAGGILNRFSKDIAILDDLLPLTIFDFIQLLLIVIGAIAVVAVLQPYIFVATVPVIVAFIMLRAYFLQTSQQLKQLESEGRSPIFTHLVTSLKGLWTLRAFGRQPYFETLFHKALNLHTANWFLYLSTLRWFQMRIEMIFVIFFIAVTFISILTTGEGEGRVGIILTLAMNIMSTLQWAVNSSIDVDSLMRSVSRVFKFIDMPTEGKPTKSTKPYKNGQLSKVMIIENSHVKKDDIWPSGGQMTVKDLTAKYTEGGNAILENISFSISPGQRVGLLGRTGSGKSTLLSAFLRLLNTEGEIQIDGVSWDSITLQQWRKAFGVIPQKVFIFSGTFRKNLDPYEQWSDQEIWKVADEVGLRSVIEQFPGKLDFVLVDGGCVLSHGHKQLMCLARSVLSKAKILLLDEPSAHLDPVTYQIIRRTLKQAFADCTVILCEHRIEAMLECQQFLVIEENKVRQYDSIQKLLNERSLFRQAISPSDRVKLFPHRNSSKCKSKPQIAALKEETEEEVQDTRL

[2] = tested on: CFTR; test: Immunofluorescence staining of CFTR in CFBE41o− cells; type: cell-based, human; conditions: CFBE41o− cells treated for 24 h, different concentrations
Description: CFBE41o− and 16HBE14o− cells, respectively, were seeded on a glass slide and, after exposure to agent or vehicle, were washed twice with PBS 1× and fixed with paraformaldehyde 4% (PFA) for 30 min and stored in PBS 1× at 4° C. until immunostaining. The fixed cells were washed twice with PBS 1×, and treated for 3 minutes with […] NH4Cl at room temperature in order to quench the aldehyde group. After another washing step, the cells were permeabilized with TRITON X100 0.1% for 5 minutes and were blocked with a solution of 1% BSA for 30 minutes. The anti-CFTR antibody M3A7, raised against an epitope corresponding to residues 1197-1480 of human CFTR (Santa Cruz) was added at 1:100 dilution for 1 hour, then the cells were stained with secondary antibody anti IgG1 488 (1:1000, Santa Cruz) and Rhodamine Phalloidine (1:500) for another hour. Finally, the cells were subjected to DAPI (Sigma Aldrich) staining (1:2000) for 1 hour at RT, then the slides were analyzed by Leica DM6000M microscope with a 40× objective. Images were processed for brightness and contrast with Adobe Photoshop.
FIG. 6: Immunofluorescence staining performed on CFBE41o− cells treated for 24 h with VX809+VX770, CHF6001 and Roflumilast at different concentrations or vehicle (DMSO).

[3] = target: T2, ΔF508 CFTR (Homo sapiens, UniProt P13569, DEL508-508); test: HS-YFP assay, CFTR corrector activity in CFBE41o− cells; type: cell-based; conditions: 24 h exposure, VRT809 5 μM
T2 construct: cells expressing endogenous ΔF508-CFTR; endogenous in cells; host or cells: CFBE41o− human CF bronchial epithelial cell line (gift from D. C. Gruenert), homozygous ΔF508
T2 sequence (P13569 with tags, fused parts or gaps DEL508-508): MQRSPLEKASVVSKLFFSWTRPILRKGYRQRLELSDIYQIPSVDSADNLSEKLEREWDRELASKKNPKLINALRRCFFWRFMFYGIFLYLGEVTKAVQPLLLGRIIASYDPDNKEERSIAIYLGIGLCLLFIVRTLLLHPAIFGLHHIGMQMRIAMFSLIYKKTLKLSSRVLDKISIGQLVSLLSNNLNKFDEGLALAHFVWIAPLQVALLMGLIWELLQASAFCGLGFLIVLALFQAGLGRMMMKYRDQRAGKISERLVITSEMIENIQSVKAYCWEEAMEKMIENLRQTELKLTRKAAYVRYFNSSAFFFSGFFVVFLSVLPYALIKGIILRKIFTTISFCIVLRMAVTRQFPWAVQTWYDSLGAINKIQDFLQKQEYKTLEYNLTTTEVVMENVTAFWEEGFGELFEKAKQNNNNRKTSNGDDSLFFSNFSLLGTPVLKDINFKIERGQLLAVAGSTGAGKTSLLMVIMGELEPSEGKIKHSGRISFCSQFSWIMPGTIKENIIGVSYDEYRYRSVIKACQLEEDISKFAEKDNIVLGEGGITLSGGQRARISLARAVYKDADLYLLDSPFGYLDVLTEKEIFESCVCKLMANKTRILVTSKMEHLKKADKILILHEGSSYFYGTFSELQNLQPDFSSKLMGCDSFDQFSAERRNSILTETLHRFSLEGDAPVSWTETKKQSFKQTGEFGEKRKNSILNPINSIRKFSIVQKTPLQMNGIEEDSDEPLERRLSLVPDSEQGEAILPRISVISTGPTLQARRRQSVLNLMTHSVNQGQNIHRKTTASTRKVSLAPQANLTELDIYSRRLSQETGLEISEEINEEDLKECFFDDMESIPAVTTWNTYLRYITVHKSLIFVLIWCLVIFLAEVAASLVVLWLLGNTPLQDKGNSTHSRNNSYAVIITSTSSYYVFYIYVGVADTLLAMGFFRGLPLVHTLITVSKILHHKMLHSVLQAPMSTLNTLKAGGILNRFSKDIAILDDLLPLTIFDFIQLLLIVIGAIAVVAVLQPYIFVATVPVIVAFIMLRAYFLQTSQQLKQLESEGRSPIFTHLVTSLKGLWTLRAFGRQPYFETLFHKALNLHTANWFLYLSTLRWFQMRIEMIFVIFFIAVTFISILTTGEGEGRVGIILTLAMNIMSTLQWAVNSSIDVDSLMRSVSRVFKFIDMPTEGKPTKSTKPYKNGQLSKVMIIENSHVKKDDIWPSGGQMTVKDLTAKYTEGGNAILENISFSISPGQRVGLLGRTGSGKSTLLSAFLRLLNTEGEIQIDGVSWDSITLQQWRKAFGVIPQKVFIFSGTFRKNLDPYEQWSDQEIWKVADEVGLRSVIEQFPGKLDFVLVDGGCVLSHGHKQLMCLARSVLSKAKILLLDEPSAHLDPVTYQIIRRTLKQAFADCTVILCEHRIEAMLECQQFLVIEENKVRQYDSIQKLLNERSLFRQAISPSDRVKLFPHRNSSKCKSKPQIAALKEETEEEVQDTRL
Description: The CF human bronchial epithelial cell line (CFBE41o−), homozygous for the ΔF508 mutation of the CFTR protein (Ehrhard et al., 2006, Cell Tissue Res. Vol. 323, p. 405-415; kind gift from D. C. Gruenert, California Pacific Medical Center Research Institute, San Francisco, Calif., USA) and the human bronchial epithelial cell line 16HBE14o−, wildtype (wt) for the CFTR protein (kindly provided by P. Davis, Case Western Reserve University School of Medicine, Cleveland, Ohio, USA) were maintained in EMEM (Lonza) supplemented with 10% FBS and 1% Glutamax (Sigma). […]
The CFTR activity in epithelial cells was evaluated by Yellow Fluorescence Protein (YFP) with a protocol modified from the method published by Averna et al. (PLoS One, 2013, vol. 8, e66089). […]
The potential corrector activity of roflumilast and a compound of general formula (I) (CHF6001) was evaluated in comparison with the known CFTR corrector VRT809 in the human bronchial epithelial cell line CFBE41o− (homozygous for the ΔF508 mutation of the CFTR protein) by the HS-YFP assay (FIG. 3). […]
FIG. 3. CFTR corrector activity was evaluated in CFBE41o− epithelial cell line after 24 h exposure to CFTR corrector VRT809 (5 μM), CHF6001, and Roflumilast at the indicated doses.
Values are normalized for total cell content and expressed as means±SEM (n=4) *p≤0.05 t-test (vs DMSO)

SMILES: O=C(Nc1c(Cl)cncc1Cl)c1ccc(OC(F)F)c(OCC2CC2)c1 [Roflumilast, 3-cyclo-propylmethoxy-4-difluoromethoxy-N-[3,5-di-chloropyrid-4-yl]-benzamide]
- trans-epithelial electric resistance normalized to DMSO (set to 100%) [1]: decrease the electric resistance
- presence of CFTR by immunofluorescence [2]: increase the presence of CFTR
- CFTR activity (corrector activity) compared with VRT809 [3]: equal or superior to VRT809

SMILES: CS(=O)(=O)Nc1ccc(C(=O)OC(Cc2c(Cl)c[n+]([O-])cc2Cl)c2ccc(OC(F)F)c(OCC3CC3)c2)cc1OCC1CC1 (stereo not drawn) [CHF6001, 3-Cyclopropylmethoxy-4-methanesulfonylamino-benzoic acid 1-(3-cyclopropylmethoxy-4-difluoromethoxy-phenyl)-2-(3,5-dichloro-1-oxy-pyridin-4-yl)-ethyl ester]
- trans-epithelial electric resistance normalized to DMSO (set to 100%) [1]: decrease the electric resistance
- presence of CFTR by immunofluorescence [2]: increase the presence of CFTR
- CFTR activity (corrector activity) compared with VRT809 [3]: equal or superior to VRT809
